According to patent publication US20250353853A1, “FLAVIVIRUS INHIBITORS” (IRBM S.P.A., priority 2022, published 2025):
Where two headings read alike, the source gives them in different places.

Legend:
[1] = target: West Nile Virus (WNV) NS2B-NS3 protease (West Nile virus (WNV), UniProt P06935); test: WNV Protease Inhibition Assay; assay type: biochemical
Description: WNV Protease Inhibition Assay

[2] = test system: ZIKV replicon in Vero cells; test: ZIKV Replication Inhibition Assay (replicon, NanoLuc); conditions: Zika virus, Vero, 72 h, read-out: Zika Replicon EC50
[3] = 2 nM protease, 10 μM pERTKR-AMC substrate, read-out: WNV Protease IC50

Sequence of West Nile Virus (WNV) NS2B-NS3 protease (P06935 1502-1679 limits assumed): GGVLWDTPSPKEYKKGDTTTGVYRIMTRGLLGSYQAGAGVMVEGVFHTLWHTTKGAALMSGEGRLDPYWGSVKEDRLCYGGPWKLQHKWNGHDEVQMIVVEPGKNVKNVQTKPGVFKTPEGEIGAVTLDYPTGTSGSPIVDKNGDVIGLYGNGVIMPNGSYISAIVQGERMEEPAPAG
Sequence of West Nile Virus (WNV) NS2B-NS3 protease (P06935 1371-1501 partner limits assumed): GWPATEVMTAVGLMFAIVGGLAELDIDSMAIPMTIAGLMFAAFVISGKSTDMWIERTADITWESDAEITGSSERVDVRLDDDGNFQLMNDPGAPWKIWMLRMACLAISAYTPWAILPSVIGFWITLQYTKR

Cc1noc(C)c1-c1ccc(C[n+]2cc([N-]C(=O)Nc3cccc(C(F)F)c3)on2)nc1 [Example 168, ((3-(difluoromethyl)phenyl)carbamoyl)(3-((5-(3,5-dimethylisoxazol-4-yl)pyridin-2-yl)methyl)-1,2,3-oxadiazol-3-ium-5-yl)amide]
IC50 [1]: 100 to 1000 nM
EC50 [2]: 100 to 1000 nM

Cn1cc(-c2ccc(C[n+]3cc([N-]C(=O)Nc4cccc(C(F)(F)F)c4)on3)cc2)cn1 [Example 23, (3-(4-(1-methyl-1H-pyrazol-4-yl)benzyl)-1,2,3-oxadiazol-3-ium-5-yl)((3-(trifluoromethyl)phenyl)carbamoyl)amide]
IC50 [1]: 100 to 1000 nM
EC50 [2]: 100 to 1000 nM

Cc1noc(C)c1-c1ccc(C[n+]2cc([N-]C(=O)Nc3ccc(F)c(C(F)(F)F)c3)on2)nc1 [Example 150, (3-((5-(3,5-dimethylisoxazol-4-yl)pyridin-2-yl)methyl)-1,2,3-oxadiazol-3-ium-5-yl)((4-fluoro-3-(trifluoromethyl)phenyl)carbamoyl)amide]
IC50 [1]: 100 to 1000 nM
EC50 [2]: < 100 nM

Cc1noc(C)c1-c1ccc(C[n+]2cc([N-]C(=O)Nc3cccc(C4CC4)c3)on2)nc1 [Example 142, ((3-cyclopropylphenyl)carbamoyl)(3-((5-(3,5-dimethylisoxazol-4-yl)pyridin-2-yl)methyl)-1,2,3-oxadiazol-3-ium-5-yl)amide]
IC50 [1]: 100 to 1000 nM
EC50 [2]: 100 to 1000 nM

Cc1noc(C)c1-c1ccc(C[n+]2cc([N-]C(=O)Nc3cncc(C(F)(F)F)c3)on2)cc1 [Example 127, (3-(4-(3,5-dimethylisoxazol-4-yl)benzyl)-1,2,3-oxadiazol-3-ium-5-yl)((5-(trifluoromethyl)pyridin-3-yl)carbamoyl)amide]
IC50 [1]: 100 to 1000 nM
EC50 [2]: 100 to 1000 nM

O=C([N-]c1c[n+](Cc2ccc(-c3ccncc3)cc2)no1)Nc1cccc(C(F)(F)F)c1 [Example 39, (3-(4-(pyridin-4-yl)benzyl)-1,2,3-oxadiazol-3-ium-5-yl)((3-(trifluoromethyl)phenyl)carbamoyl)amide]
IC50 [1]: 100 to 1000 nM
EC50 [2]: 100 to 1000 nM

Cc1noc(C)c1-c1ccc(C[n+]2cc([N-]C(=O)Nc3cccc(C(F)(F)F)n3)on2)nc1 [Example 161, (3-((5-(3,5-dimethylisoxazol-4-yl)pyridin-2-yl)methyl)-1,2,3-oxadiazol-3-ium-5-yl)((6-(trifluoromethyl)pyridin-2-yl)carbamoyl)amide]
IC50 [1]: 1000 to 20000 nM
EC50 [2]: 1000 to 20000 nM

O=C([N-]c1c[n+](Cc2ccc(-c3ccnc(O)c3)cc2)no1)Nc1cccc(C(F)(F)F)c1 [Example 64, (3-(4-(2-hydroxypyridin-4-yl)benzyl)-1,2,3-oxadiazol-3-ium-5-yl)((3-(trifluoromethyl)phenyl)carbamoyl)amide]
IC50 [1, 3]: < 100 nM
EC50 [2]: 100 to 1000 nM

COc1ncc(-c2ccc(C[n+]3cc([N-]C(=O)Nc4cncc(C(F)(F)F)c4)on3)nc2)c(C)n1 [Example 133, (3-((5-(2-methoxy-4-methylpyrimidin-5-yl)pyridin-2-yl)methyl)-1,2,3-oxadiazol-3-ium-5-yl)((5-(trifluoromethyl)pyridin-3-yl)carbamoyl)amide]
IC50 [1]: 100 to 1000 nM
EC50 [2]: 100 to 1000 nM

Cc1cnn(C)c1-c1ccc(C[n+]2cc([N-]C(=O)Nc3cncc(C(F)(F)F)c3)on2)nc1 [Example 178, (3-((5-(1,4-dimethyl-1H-pyrazol-5-yl)pyridin-2-yl)methyl)-1,2,3-oxadiazol-3-ium-5-yl)((5-(trifluoromethyl)pyridin-3-yl)carbamoyl)amide]
IC50 [1]: 100 to 1000 nM
EC50 [2]: < 100 nM

C[C@H](c1ccc(-c2cncnc2)cc1)[n+]1cc([N-]C(=O)Nc2cncc(C(F)(F)F)c2)on1 [Example 75, (R)-(3-(1-(4-(pyrimidin-5-yl)phenyl)ethyl)-1,2,3-oxadiazol-3-ium-5-yl)((5-(trifluoromethyl)pyridin-3-yl)carbamoyl)amide]
IC50 [1, 3]: < 100 nM
EC50 [2]: 100 to 1000 nM

Cc1ncccc1-c1ccc(C[n+]2cc([N-]C(=O)Nc3cccc(C(F)(F)F)c3)on2)nc1 [Example 138, (3-((2′-methyl-[3,3′-bipyridin]-6-yl)methyl)-1,2,3-oxadiazol-3-ium-5-yl)((3-(trifluoromethyl)phenyl)carbamoyl)amide]
IC50 [1, 3]: < 100 nM
EC50 [2]: < 100 nM

COc1cc(-c2ccc(C[n+]3cc([N-]C(=O)Nc4cccc(C(F)(F)F)c4)on3)nc2)c(OC)nn1 [Example 181, (3-((5-(3,6-dimethoxypyridazin-4-yl)pyridin-2-yl)methyl)-1,2,3-oxadiazol-3-ium-5-yl)((3-(trifluoromethyl)phenyl)carbamoyl)amide]
IC50 [1]: 100 to 1000 nM
EC50 [2]: < 100 nM

N#Cc1ncncc1-c1ccc(C[n+]2cc([N-]C(=O)Nc3cncc(C(F)(F)F)c3)on2)nc1 [Example 144, (3-((5-(4-cyanopyrimidin-5-yl)pyridin-2-yl)methyl)-1,2,3-oxadiazol-3-ium-5-yl)((5-(trifluoromethyl)pyridin-3-yl)carbamoyl)amide]
IC50 [1, 3]: < 100 nM
EC50 [2]: 1000 to 20000 nM

Cc1noc(C)c1-c1ccc(C[n+]2cc([N-]C(=O)Nc3ccc(Cl)c(C(F)(F)F)c3)on2)nc1 [Example 157, ((4-chloro-3-(trifluoromethyl)phenyl)carbamoyl)(3-((5-(3,5-dimethylisoxazol-4-yl)pyridin-2-yl)methyl)-1,2,3-oxadiazol-3-ium-5-yl)amide]
IC50 [1]: 1000 to 20000 nM
EC50 [2]: 100 to 1000 nM

Cc1ccncc1-c1ccc(C[n+]2cc([N-]C(=O)Nc3cccc(C(F)(F)F)c3)on2)nc1 [Example 139, (3-((4′-methyl-[3,3′-bipyridin]-6-yl)methyl)-1,2,3-oxadiazol-3-ium-5-yl)((3-(trifluoromethyl)phenyl)carbamoyl)amide]
IC50 [1, 3]: < 100 nM
EC50 [2]: < 100 nM

O=C([N-]c1c[n+](Cc2ccc(-c3ccnnc3)cc2)no1)Nc1cccc(C(F)(F)F)c1 [Example 61, (3-(4-(pyridazin-4-yl)benzyl)-1,2,3-oxadiazol-3-ium-5-yl)((3-(trifluoromethyl)phenyl)carbamoyl)amide]
IC50 [1, 3]: < 100 nM
EC50 [2]: < 100 nM

O=C([N-]c1c[n+](Cc2cccc(Br)c2)no1)Nc1cccc(C(F)(F)F)c1 [Example 46, (3-(3-bromobenzyl)-1,2,3-oxadiazol-3-ium-5-yl)((3-(trifluoromethyl)phenyl)carbamoyl)amide]
IC50 [1]: 100 to 1000 nM
EC50 [2]: 1000 to 20000 nM

O=C([N-]c1c[n+](Cc2ccc(I)cc2)no1)Nc1cccc(C(F)(F)F)c1 [Example 47, (3-(4-iodobenzyl)-1,2,3-oxadiazol-3-ium-5-yl)((3-(trifluoromethyl)phenyl)carbamoyl)amide]
IC50 [1]: 100 to 1000 nM
EC50 [2]: 100 to 1000 nM

Cc1noc(C)c1-c1ccc(C[n+]2cc([N-]C(=O)Nc3cncc(C4CC4)c3)on2)nc1 [Example 146, ((5-cyclopropylpyridin-3-yl)carbamoyl)(3-((5-(3,5-dimethylisoxazol-4-yl)pyridin-2-yl)methyl)-1,2,3-oxadiazol-3-ium-5-yl)amide]
IC50 [1]: 100 to 1000 nM
EC50 [2]: 100 to 1000 nM

O=C([N-]c1c[n+](Cc2ccc(-c3ccnnc3)cn2)no1)Nc1cncc(C(F)(F)F)c1 [Example 145, (3-((5-(pyridazin-4-yl)pyridin-2-yl)methyl)-1,2,3-oxadiazol-3-ium-5-yl)((5-(trifluoromethyl)pyridin-3-yl)carbamoyl)amide]
IC50 [1]: 100 to 1000 nM
EC50 [2]: 1000 to 20000 nM

N#Cc1ncncc1-c1ccc(C[n+]2cc([N-]C(=O)Nc3cccc(C(F)(F)F)c3)on2)nc1 [Example 148, (3-((5-(4-cyanopyrimidin-5-yl)pyridin-2-yl)methyl)-1,2,3-oxadiazol-3-ium-5-yl)((3-(trifluoromethyl)phenyl)carbamoyl)amide]
IC50 [1, 3]: < 100 nM
EC50 [2]: 100 to 1000 nM

Cc1ncnc(C)c1-c1ccc(C[n+]2cc([N-]C(=O)Nc3cncc(C(F)(F)F)c3)on2)cc1 [Example 187, (3-(4-(4,6-dimethylpyrimidin-5-yl)benzyl)-1,2,3-oxadiazol-3-ium-5-yl)((5-(trifluoromethyl)pyridin-3-yl)carbamoyl)amide]
IC50 [1]: 100 to 1000 nM
EC50 [2]: 1000 to 20000 nM

O=C([N-]c1c[n+](Cc2ccc(-c3cncnc3)cc2)no1)Nc1cccc(C(F)(F)F)c1 [Example 26, (3-(4-(Pyrimidin-5-yl)benzyl)-1,2,3-oxadiazol-3-ium-5-yl)((3-(trifluoromethyl)phenyl)carbamoyl)amide]
IC50 [1]: 100 to 1000 nM
EC50 [2]: 100 to 1000 nM

O=C([N-]c1c[n+]([C@@H](CO)Cc2ccccc2)no1)Nc1cccc(C(F)(F)F)c1 [Example 45]
IC50 ([1]; read-out: WNV Protease IC50, 2 nM protease, 10 μM pERTKR-AMC substrate): 1000 to 20000 nM

Cc1ncnc(OCCN(C)C)c1-c1ccc(C[n+]2cc([N-]C(=O)Nc3cccc(C(F)(F)F)c3)on2)nc1 [Example 123, ((3-((5-(4-(2-(metheyliumyl(methyl)ammonio)ethoxy)-6-methylpyrimidin-5-yl)pyridin-2-yl)methyl)-1,2,3-oxadiazol-3-ium-5-yl)((3-(trifluoromethyl)phenyl)carbamoyl)amide) (2,2,2-trifluoroacetate)]
EC50 [2]: 100 to 1000 nM

O=C([N-]c1c[n+]([C@H](CO)c2ccccc2)no1)Nc1cccc(C(F)(F)F)c1 [Example 31, (S)-(3-(2-hydroxy-1-phenylethyl)-1,2,3-oxadiazol-3-ium-5-yl)((3-(trifluoromethyl)phenyl)carbamoyl)amide]
EC50 [2]: > 20000 nM

COc1ncncc1-c1cccc(C[n+]2cc([N-]C(=O)Nc3cccc(C(F)(F)F)c3)on2)c1 [Example 84, (3-(3-(4-methoxypyrimidin-5-yl)benzyl)-1,2,3-oxadiazol-3-ium-5-yl)((3-(trifluoromethyl)phenyl)carbamoyl)amide]
EC50 [2]: 100 to 1000 nM

C[C@@H](Cc1ccccc1)[n+]1cc([N-]C(=O)Nc2cccc(C(F)(F)F)c2)on1 [Example 14, (S)-(3-(1-phenylpropan-2-yl)-1,2,3-oxadiazol-3-ium-5-yl)((3-(trifluoromethyl)phenyl)carbamoyl)amide]
EC50 [2]: > 20000 nM

Cc1nn(C)c(C)c1-c1ccc(C[n+]2cc([N-]C(=O)Nc3cccc(C(F)(F)F)c3)on2)cc1 [Example 97]
EC50 [2]: < 100 nM
